As a reminder, the Ki is a measure of affinity in units of concentration, obtained from inhibition or displacement.

T1 sequence (P34969 whole entry): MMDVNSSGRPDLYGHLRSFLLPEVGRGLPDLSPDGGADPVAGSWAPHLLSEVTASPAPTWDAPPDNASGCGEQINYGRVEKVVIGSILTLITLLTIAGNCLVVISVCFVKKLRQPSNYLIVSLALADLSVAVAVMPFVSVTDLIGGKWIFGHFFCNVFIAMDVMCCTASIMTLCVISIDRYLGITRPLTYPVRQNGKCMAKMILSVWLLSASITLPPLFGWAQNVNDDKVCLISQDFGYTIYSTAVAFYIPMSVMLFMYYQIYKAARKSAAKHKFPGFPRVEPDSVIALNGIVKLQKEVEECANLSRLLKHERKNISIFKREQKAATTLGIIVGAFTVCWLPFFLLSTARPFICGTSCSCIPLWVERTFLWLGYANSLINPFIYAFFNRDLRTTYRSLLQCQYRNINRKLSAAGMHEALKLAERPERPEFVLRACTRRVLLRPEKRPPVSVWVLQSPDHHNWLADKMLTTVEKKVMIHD

The first experiment addresses T1, Cloned Human Serotonin Receptor, Subtype 7 (h5HT7) (Homo sapiens, UniProt P34969).
T1 construct: purchased PerkinElmer 6120512; host or cells: CHO cells
Description: Radioligand binding assay, [125I]LSD, cloned human 5-HT7 receptor expressed in CHO cells (Flashplate).
Details: not given
As to the method:
Radioligand binding assays were performed using the Cloned Human Serotonin Receptor, Subtype 7 (h5HT7), expressed in CHO cells, coated on Flashplate (Basic FlashPlate Cat.: SMP200) from PerkinElmer (Cat.: 6120512). The protocol assay was essentially the recommended protocol in the Technical Data Sheet by PerkinEmer Life and Analytical Sciences. The Mass membrane protein/well was typically […] and the Receptor/well was about 9-10 fmoles. The Flashplate were let equilibrate at room temperature for one hour before the addition of the components of the assay mixture. The binding buffer was: 50 mM Tris-HCl, pH 7.4, containing 10 mM MgCl2, 0.5 mM EDTA and 0.5% BSA. The radioligand was [^125I]LSD at a final concentration of 0.82 nM. Nonspecific binding was determined with 50 µM of Clozapine. The assay volume was 25 l. TopSeal-A were applied onto Flashplate microplates and they were incubated at room temperature for 240 minutes in darkness. The radioactivity were quantified by liquid scintillation spectrophotometry (Wallac 1450 Microbeta Trilux) with a count delay of 4 minutes prior to counting and a counting time of 30 seconds per well. Competition binding data were analyzed by using the LIGAND program (Munson and Rodbard, LIGAND: A versatile, computerized approach for characterization of ligandbinding systems. Anal. Biochem. 107: 220-239, 1980) and assays were performed in triplicate determinations for each point.
On to `CCc1c(C)nn(C)c1-c1ccc(OC)c(CCN(C)C)c1` [Example 3, 2-(5-(4-ethyl-1,3-dimethyl-1H-pyrazol-5-yl)-2-methoxyphenyl)-N,N-dimethyl ethanamine], for which the affinity, expressed as Ki, was 599 nM.

With `COc1ccc(-c2c(C)c(C)nn2C(C)C)cc1CCN(C)C` [Example 31, 2-(5-(1-isopropyl-3,4-dimethyl-1H-pyrazol-5-yl)-2-methoxyphenyl)-N,N-dimethyl ethanamine], the Ki came out at 83.1 nM. As for `COc1ccc(-c2c(C)c(C)nn2C)cc1CCN(C)C` [Example 9, 2-(2-methoxy-5-(1,3,4-trimethyl-1H-pyrazol-5-yl)phenyl)-N,N-dimethylethanamine], affinity was put at a Ki of 113 ± 2.6 nM. Still for that read-out and setting: next, `CCn1nc(C)c(C)c1-c1ccc(OC)c(CCN(C)C)c1` [Example 28, 2-(5-(1-ethyl-3,4-dimethyl-1H-pyrazol-5-yl)-2-methoxyphenyl)-N,N-dimethyl ethanamine]: 81.9 nM.

Staying with this experiment, now noted: h5HT7 expressed in CHO cells; radioligand [125I]LSD 0.82 nM; nonspecific binding with clozapine; triplicate determinations; read-out: 5-HT7 Ki.
For the molecule `COc1ccc(-c2c(C)c(C)nn2CC(F)(F)F)cc1CCN(C)C` [Example 34, 2-(5-(3,4-dimethyl-1-(2,2,2-trifluoroethyl)-1H-pyrazol-5-yl)-2-methoxyphenyl)-N,N-dimethyl ethanamine], the inhibition constant Ki was determined as 146 nM. `Cc1nn(CC(F)(F)F)c(-c2cccc(CCN(C)C)c2)c1C` [Example 33, 2-(3-(3,4-dimethyl-1-(2,2,2-trifluoroethyl)-1H-pyrazol-5-yl)phenyl)-N,N-dimethyl ethanamine]: the Ki amounted to 527 nM.

Consider `COc1ccc(-c2c(-c3ccccc3)c(C)nn2-c2ccccc2)cc1CCN(C)C` [Example 19, 2-(2-methoxy-5-(3-methyl-1,4-diphenyl-1H-pyrazol-5-yl)phenyl)-N,N-dimethyl ethanamine], for which the inhibition constant (Ki) came out at 447 ± 64.8 nM.

As to `CCc1c(C)nn(C)c1-c1ccc(O)c(CCN(C)C)c1` [Example 4, 2-(2-(dimethylamino)ethyl)-4-(4-ethyl-1,3-dimethyl-1H-pyrazol-5-yl)phenol], the Ki was found to be 577 ± 81.6 nM. Same read-out and setting: under `Cc1nn(CC(F)(F)F)c(-c2ccc(O)c(CCN(C)C)c2)c1C` [Example 35, 4-(3,4-dimethyl-1-(2,2,2-trifluoroethyl)-1H-pyrazol-5-yl)-2-(2-(dimethylamino)ethyl)phenol] stands 320 nM; under `Cc1nn(C)c(-c2ccc(O)c(CCN(C)C)c2)c1C` [Example 10, 2-(2-(dimethylamino)ethyl)-4-(1,3,4-trimethyl-1H-pyrazol-5-yl)phenol], 102 nM. Still for that read-out and setting: under `Cc1nn(C(C)C)c(-c2cccc(CCN(C)C)c2)c1C` [Example 30, 2-(3-(1-isopropyl-3,4-dimethyl-1H-pyrazol-5-yl)phenyl)-N,N-dimethylethanamine] stands 300 nM; under `CNCCc1cc(-c2c(C)c(C)nn2C)ccc1O` [Example 11, 2-(2-(methylamino)ethyl)-4-(1,3,4-trimethyl-1H-pyrazol-5-yl)phenol], 23.5 ± 5.2 nM. On the same count and under the same terms, next, `Cc1nn(C)c(-c2cccc(CCN(C)C)c2)c1C` [Example 8, N,N-dimethyl-2-(3-(1,3,4-trimethyl-1H-pyrazol-5-yl)phenyl)ethanamine]: 261 ± 102 nM; `COc1ccc(-c2c(C)c(C)nn2-c2ccccc2)cc1CCN(C)C` [Example 22, 2-(5-(3,4-dimethyl-1-phenyl-1H-pyrazol-5-yl)-2-methoxyphenyl)-N,N-dimethyl ethanamine]: 391 nM.

For the molecule `COc1ccc(-c2c3c(nn2-c2ccccc2)CCCC3)cc1CCN(C)C` [Example 25, 2-(2-methoxy-5-(2-phenyl-4,5,6,7-tetrahydro-2H-indazol-3-yl)phenyl)-N,N-dimethyl ethanamine], the Ki was found to be 420 nM. As for `CCc1c(C)nn(C)c1-c1cccc(CCN(C)C)c1` [Example 2, 2-(3-(4-ethyl-1,3-dimethyl-1H-pyrazol-5-yl)phenyl)-N,N-dimethylethanamine], the Ki stood at 597 nM.

Take `Cc1nn(-c2ccccc2)c(-c2ccc(O)c(CCN(C)C)c2)c1C` [Example 23, 4-(3,4-dimethyl-1-phenyl-1H-pyrazol-5-yl)-2-(2-(dimethylamino)ethyl)phenol]: the Ki came out at 611 nM. With `Cc1nn(C(C)C)c(-c2ccc(O)c(CCN(C)C)c2)c1C` [Example 32, 2-(2-(dimethylamino)ethyl)-4-(1-isopropyl-3,4-dimethyl-1H-pyrazol-5-yl)phenol], the Ki was found to be 150 nM.

For the molecule `CCn1nc(C)c(C)c1-c1ccc(O)c(CCN(C)C)c1` [Example 29, 2-(2-(dimethylamino)ethyl)-4-(1-ethyl-3,4-dimethyl-1H-pyrazol-5-yl)phenol], the Ki was determined as 102 nM.

The values are drawn from patent US20120322842A1, “HETEROCYCYL-SUBSTITUTED-ALKYLAMINOPHENYL DERIVATIVES, THEIR PREPARATION AND USE AS MEDICAMENTS” (LABORATORIOS DEL DR. ESTEVE, S.A., priority 2009, published 2012).
